From PubChem BioAssay AID1552 (Sanford-Burnham Center for Chemical Genomics, 2009) come the findings set out here.

Each structure is given as a SMILES string. Activity calls are given as the source filed them. How the calls were made is not given here.

The target in this test is Ubiquitin-conjugating enzyme E2 N (Homo sapiens) (UniProt P61088). The test can be described thus: UBE2N binders by NMR, biophysical, purified protein (AID 1552). The following applies: NMR binding to purified UBE2N.
Sequence of Ubiquitin-conjugating enzyme E2 N (Homo sapiens) (P61088 whole entry, looked up): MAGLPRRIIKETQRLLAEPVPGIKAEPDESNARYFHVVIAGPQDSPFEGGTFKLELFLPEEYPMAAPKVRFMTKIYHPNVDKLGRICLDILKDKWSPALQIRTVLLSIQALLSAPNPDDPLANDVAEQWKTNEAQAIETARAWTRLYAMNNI

One may read the Kd as a measure of binding affinity in units of concentration. `CC(C1OC(C)(C)C(O)C1O)[C@@H]1CC[C@]2(C)C3=CCC4C(C)(C)C(=O)CC[C@]4(C)C3CC[C@@]12C` (stereo not given in full): the Kd was > 4 mM (inactive).

With `CC(=O)OCC(=O)[C@@]1(O)CCC2C3CC[C@@H]4C[C@H](O)CC[C@]4(C)C3C(=O)C[C@@]21C` (stereo not given in full), the Kd was > 4 mM (inactive).

In the case of `CCOC(=O)c1ccc(Oc2ccc(C)nn2)cc1`, the Kd was > 4 mM (inactive).

Consider `O=C(Nc1ccccc1)Nc1ccccn1`, for which the Kd was > 4 mM (inactive).

Take `Nc1nc(-c2ccccc2)ns1`: the Kd is > 4 mM (inactive).

As for `c1cncc(Cn2cccc2)c1`, the Kd was > 4 mM (inactive).

For the compound `O=C(Nc1nnc(C(F)(F)F)s1)c1cccnc1`, the Kd was > 4 mM (inactive).

Consider `CCC(CCC(C)[C@H]1CCC2C3CC=C4C[C@@H](O)CC[C@]4(C)C3CC[C@@]21C)C(C)C` (stereo not given in full), for which the Kd was > 4 mM (inactive).

With `O=C(Cc1c(F)cccc1Cl)Nc1ccon1`, the Kd was > 4 mM (inactive).

On to `C[C@]12CCC3C(CC[C@]4(O)C[C@@H](O)CC[C@]34C=O)[C@@]1(O)CCC2C1=CC(=O)OC1` (stereo not given in full), for which the Kd is > 4 mM (inactive).

Regarding `COc1cccc(/C=N/N=C2/NC(=O)CS2)c1`, the Kd is > 4 mM (inactive).

For the compound `O=C(CSc1ncccn1)Nc1nccs1`, the Kd was > 4 mM (inactive).

As to `NS(=O)(=O)c1ccc2c(c1)OCCO2`, the Kd is > 4 mM (inactive).

For `CC(C)(C)Cc1nc(-c2ccccn2)no1`, the Kd was > 4 mM (inactive).

With `O=C1CCCN1C(=O)CN1CCOCC1`, the Kd is > 4 mM (inactive).

For the compound `CN1C(=O)c2ccc(C(=O)NCc3ccccc3)cc2C1=O`, the Kd was > 4 mM (inactive).

Take `O=C1NC(=Nc2ccccc2)S/C1=C/c1cccnc1`: the Kd is > 4 mM (inactive).

For `NC(=O)Cn1nc2c3c(cccc3c1=O)-c1ccccc1-2`, the Kd was > 4 mM (inactive).

In the case of `OCC12COC3c4ccccc4C(OC1)N32` (stereo not given), the Kd was > 4 mM (inactive).

With `CSc1nc(O)cc(=O)[nH]1`, the Kd was > 4 mM (inactive).

Consider `O=C1NC(=S)N/C1=C\c1cccnc1`, for which the Kd is > 4 mM (inactive).

Consider `O=C1CC(=O)N(c2ccccc2)C(=O)N1`, for which the Kd is > 4 mM (inactive).

For the compound `NC(=O)C1CCN(c2nccc(C(F)(F)F)n2)CC1`, the Kd was > 4 mM (inactive).

Consider `Nc1cc(C(F)(F)F)ccc1N1CCOCC1`, for which the Kd is > 4 mM (inactive).

As to `NC(=O)Cc1nc(-c2ccc(F)cc2)cs1`, the Kd was > 4 mM (inactive).

In the case of `CC1(C)Cc2nc3n[nH]c(N)c3cc2CO1`, the Kd was > 4 mM (inactive).

For `COc1ccc2c(c1O)-c1c(OC)c(OC)cc3c1[C@H](C2)N(C)CC3`, the Kd is > 4 mM (inactive).

`CC(=O)Nc1ccc(NC(C)=O)c(C(F)(F)F)c1`: the Kd is > 4 mM (inactive).

For `O=C(Nc1ccccc1C(F)(F)F)N1CCCCCC1`, the Kd was > 4 mM (inactive).

With `CC1(C)CC[C@]2(C(=O)O)CC[C@]3(C)C(=CCC4[C@@]5(C)CC[C@@H](O)C(C)(C)C5CC[C@]43C)C2C1` (stereo not given in full), the Kd is > 4 mM (inactive).

In the case of `Cc1noc(C)c1C(=O)N1CCc2ccccc21`, the Kd is > 4 mM (inactive).

Regarding `CCNCC(O)c1ccc([N+](=O)[O-])cc1` (stereo not given), the Kd was > 4 mM (inactive).

As for `NCCCCN=C(N)N`, the Kd is > 4 mM (inactive).

Take `Cc1nc(N2CCOCC2)[nH]c(=O)c1C`: the Kd was > 4 mM (inactive).

Turning to `CN1CCC(=NNC(=O)c2ccco2)CC1`, the Kd was > 4 mM (inactive).

Turning to `COC(=O)c1noc(C)c1C(C)=O`, the Kd was > 4 mM (inactive).

For the compound `Cc1ccc(CN2CCNC(=O)C2CC(=O)O)o1` (stereo not given), the Kd was > 4 mM (inactive).

Take `COc1cc([C@H]2Oc3cc([C@H]4Oc5cc(O)cc(O)c5C(=O)[C@@H]4O)ccc3O[C@@H]2CO)ccc1O`: the Kd was > 4 mM (inactive).

For the compound `O=C1C[C@@H](c2ccc(O)cc2)Oc2cc(O)cc(O)c21`, the Kd was > 4 mM (inactive).

On to `NS(=O)(=O)c1ccc(N=Cc2cccs2)cc1`, for which the Kd is > 4 mM (inactive).

`O=C(COc1ccccc1O)NCCO`: the Kd is > 4 mM (inactive).

Turning to `CCCCN1C(=O)C2CC/C(=N/O)CC2C1=O` (stereo not given), the Kd was > 4 mM (inactive).

On to `OCC(O)C(O)C(O)CO` (stereo not given), for which the Kd is > 4 mM (inactive).

As for `COCCn1cnc2cc(C)c(C)cc21`, the Kd is > 4 mM (inactive).

`N#Cc1c[nH]n2c(=O)cc(Cc3ccccc3)nc12`: the Kd is > 4 mM (inactive).

`COCC(=O)Nc1ccc(C)c(Cl)c1`: the Kd was > 4 mM (inactive).

For `OCc1cccs1`, the Kd is > 4 mM (inactive).

With `CC(=O)NN1C(=O)c2cccc3cccc(c23)C1=O`, the Kd is > 4 mM (inactive).

For the compound `CC1(C)CC(NC(=O)/C=C/C(=O)O)CC(C)(C)N1`, the Kd is > 4 mM (inactive).

`Cc1c(O)c(O)cc2c1CC=C1[C@@]2(C)CC[C@@]2(C)C3C[C@](C)(C(=O)O)CC[C@]3(C)CC[C@]12C` (stereo not given in full): the Kd is > 4 mM (inactive).

With `Cc1cc(C(=O)Nn2cnnc2)cs1`, the Kd was > 4 mM (inactive).

As for `COc1c(-c2coc3cc4c(cc3c2=O)CC(O)C(C)(C)O4)ccc2c1C=CC(C)(C)O2` (stereo not given), the Kd was > 4 mM (inactive).

Regarding `FC(F)(F)c1nnc2ccc(N3CCOCC3)nn12`, the Kd was > 4 mM (inactive).

Take `C[C@H](CCC(=O)O)[C@H]1CCC2C3C(CC[C@@]21C)[C@@]1(C)CC[C@@H](O)C[C@H]1C[C@H]3O` (stereo not given in full): the Kd is > 4 mM (inactive).

Consider `CCN1CCn2c1nc(N1CCOCC1)nc2=O`, for which the Kd is > 4 mM (inactive).

For the compound `O=C(O)c1cccc2nsnc12`, the Kd was > 4 mM (inactive).

`COCC(=O)NC1CC(C)(C)NC(C)(C)C1`: the Kd is > 4 mM (inactive).

As to `O=C(CC1SC(=O)NC1=O)Nc1nccs1` (stereo not given), the Kd was > 4 mM (inactive).

Regarding `CC(=O)O[C@H]1C(=O)[C@@]2(C)C([C@H](OC(=O)c3ccccc3)[C@]3(O)C[C@H](OC(=O)[C@H](O)[C@@H](NC(=O)c4ccccc4)c4ccccc4)C(C)=C1C3(C)C)[C@]1(OC(C)=O)CO[C@@H]1C[C@@H]2O` (stereo not given in full), the Kd is > 4 mM (inactive).

Regarding `COC(=O)C[C@H]1C(C)(C)C(OC(C)=O)[C@]2(O)C=C3C(CC[C@]4(C)C3CC(=O)O[C@H]4c3ccoc3)C1(C)C2=O` (stereo not given in full), the Kd is > 4 mM (inactive).

On to `CN1CCC(N2CCCC(C(N)=O)C2)CC1` (stereo not given), for which the Kd was > 4 mM (inactive).

Turning to `O=C(CO)N/N=C/c1ccccc1F`, the Kd is > 4 mM (inactive).

As to `Cc1nn2c(nc1=O)SCC(c1ccccc1)=N2`, the Kd was > 4 mM (inactive).

As to `CNC(=O)c1ccccc1N`, the Kd was > 4 mM (inactive).

Consider `Cc1nnc(N2CCN(Cc3ccccc3)CC2)[nH]c1=O`, for which the Kd is > 4 mM (inactive).

In the case of `Fc1ccc(N2CCNCC2)cc1`, the Kd is > 4 mM (inactive).

On to `S=C(c1cccnc1)N1CCOCC1`, for which the Kd is > 4 mM (inactive).

Consider `CC1(C)C(=O)[C@@H]2C[C@@]3(O)C4=CC(=O)O[C@@H](c5ccoc5)[C@]4(C)CCC3C(C)(C2=O)[C@H]1CC(=O)O` (stereo not given in full), for which the Kd was > 4 mM (inactive).

On to `CS(=O)(=O)N1CCN(C(=O)c2ccccc2)C1`, for which the Kd was > 4 mM (inactive).

In the case of `NC(=O)C12CC3CC(C1)C(=O)C(C3)C2`, the Kd was > 4 mM (inactive).

In the case of `COC(=O)c1ccc(/C=C2/NC(=S)NC2=O)cc1`, the Kd was > 4 mM (inactive).

Consider `NC(=O)CN=Cc1c(O)[nH]c2ccccc12`, for which the Kd was > 4 mM (inactive).

Turning to `O=c1[nH]c2sc3c(c2c2ncnn12)CCCC3`, the Kd is > 4 mM (inactive).

For `COC(=O)CSc1nc(N)cc(=O)[nH]1`, the Kd is > 4 mM (inactive).

As for `O=C(O)C1CC(=O)N(Cc2ccc(F)cc2)C1` (stereo not given), the Kd was > 4 mM (inactive).

Consider `Cc1nnc(SCc2ccc(F)cc2)s1`, for which the Kd was > 4 mM (inactive).

Turning to `CC(=O)OC1CCC23CC1(C)CCC2C(C)(C)CC3OC(C)=O` (stereo not given), the Kd is > 4 mM (inactive).

`O=C(O)c1sccc1-n1cccc1`: the Kd was > 4 mM (inactive).

Turning to `NC(=O)C1CCN(C(=S)Nc2ccccc2)CC1`, the Kd is > 4 mM (inactive).

On to `NC(=O)C1CCN(CC2CC=CCC2)CC1` (stereo not given), for which the Kd was > 4 mM (inactive).

Regarding `Oc1cnc2ccccc2c1CN1CCOCC1`, the Kd is > 4 mM (inactive).

In the case of `O=C1C2CCCCC2C(=O)N1Cc1cccnc1` (stereo not given), the Kd was > 4 mM (inactive).

On to `CC(=O)c1ccc[nH]1`, for which the Kd was > 4 mM (inactive).

For `COc1ccc(C)cc1S(=O)(=O)NC1CCCC1`, the Kd is > 4 mM (inactive).

For `Cc1noc(C)c1C(=O)N1CCN(c2ncccn2)CC1`, the Kd was > 4 mM (inactive).

Regarding `O=C(Nc1cccnc1)c1ccc(Br)s1`, the Kd was > 4 mM (inactive).

In the case of `O=C1CCCc2c1nc(-c1ccccc1)n2O`, the Kd is > 4 mM (inactive).

`Cc1ccc2nc(SCCC#N)nc(C)c2c1`: the Kd was > 4 mM (inactive).

For the compound `C/C=C(\C)c1nnc(NC(=O)C(C)C)s1`, the Kd was > 4 mM (inactive).

As for `S=C(CN1CCCC1=S)N1CCOCC1`, the Kd was > 4 mM (inactive).

In the case of `CC1=C2C(O)C(=O)OC3CC4C(C)(C)C(=O)C=C[C@]4(C)C(CC1)[C@]23C` (stereo not given in full), the Kd is > 4 mM (inactive).

`Cc1ccc2[nH]cc(CCN)c2c1`: the Kd was > 4 mM (inactive).

For the compound `NC(=O)c1cccnc1Oc1ccccc1`, the Kd is > 4 mM (inactive).

`CC1Cc2nc(SCC(N)=O)n(C)c(=O)c2S1` (stereo not given): the Kd is > 4 mM (inactive).

`CC(=O)OC1CC[C@@]2(C)C(CCC3C2CC[C@]2(C)C(C4=CC(=O)OC4)C(OC(C)=O)CC32O)C1` (stereo not given in full): the Kd was > 4 mM (inactive).

As to `CNc1nc(C)nc(-n2nc(C)cc2C)n1`, the Kd is > 4 mM (inactive).

With `S=C(NCc1cccnc1)NC1CC1`, the Kd was > 4 mM (inactive).

As for `Cn1c(-c2ccccc2F)n[nH]c1=S`, the Kd is > 4 mM (inactive).

`CCc1ccc(C(=O)N2CCCC2)s1`: the Kd was > 4 mM (inactive).

Turning to `O=C1CS/C(=N/S(=O)(=O)c2ccccc2)N1`, the Kd is > 4 mM (inactive).
